IC50, Papp and EC50 data for 20 molecules are collected here from patent US10294229B2, “Heteroaryl substituted aminopyridine compounds” (BRISTOL-MYERS SQUIBB COMPANY, priority 2015, dated 2019).

The target in one data set is IRAK4 (Homo sapiens (Human), UniProt Q9NWZ3). Description: IRAK4 Inhibition Assay. In kind it is biochemical. To be noted: ATP 500 μM; IRAK4 0.6 nM. The essentials:
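Enzyme 0.6 nM, ATP 500 μM, FL-peptide 1.5 μM, DMSO 1.6%; HEPES pH 7.2/MgCl2/Brij 35/DTT buffer. RT, 60 min, EDTA stop. Mobility-shift product/substrate ratio; % inhib vs no-enzyme and vehicle controls.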

The nature of data set [1]: Caco-2 Permeability Assay. In kind it is in vitro ADME. To be noted: human, Caco-2, test compound 3 μM. The procedure:
Caco-2 Permeability Assay
Thirteen to 27 days prior to assay, Caco-2 cells were seeded onto collagen-coated polycarbonate filter membranes in 24-well transwell plates at a density of 1.45×10^5 cells/cm^2, approximately 4.8×10^4 cells per well. The cells were grown in a culture medium consisting of DMEM supplemented with 10% fetal bovine serum, 10 mM HEPES, 1% nonessential amino acids, 2 mM L-glutamine, 100 U/mL penicillin-G, and 100 μg/mL streptomycin. The culture medium was replaced every 3 days and the cells were maintained at 37° C. in a 95% relative humidity and 5% CO2 atmosphere. The cells were evaluated for tight junction formation just prior to assay. The test compound was solubilized to 10 mM in 100% DMSO and diluted to 3 μM in assay buffer. Permeability studies were initiated by adding 200 μL assay buffer plus/minus compound to the apical transwell compartment and 600 μL assay buffer plus/minus compound to the basolateral compartment of the 24-well transwell low-binding cluster plate. For apical-to-basolateral (A to B) permeability (absorptive direction), buffer containing compound was placed in the apical compartment (donor wells), while buffer alone was placed in the corresponding basolateral compartments (receiver wells). For basolateral-to-apical (B to A) permeability (secretive direction), buffer containing compound was placed in the basolateral compartment (donor wells), while buffer alone was placed in the corresponding apical compartments (receiver wells). Transwells were then incubated for 2 hours at 37° C. in a 95% relative humidity and 5% CO2 atmosphere with gentle agitation. Following incubation, 100 μL was removed from each apical and basolateral compartment and transferred to 96-well low binding plates that had been previously loaded with 100 μL/well of acetonitrile containing 250 nM propranolol, 250 nM diclofenac, and 500 nM tolbutamide as internal standards. The samples were subsequently analyzed by LC-MS/MS to determine concentrations of compound.
(In general: Caco-2 cells form a polarised layer with tight junctions and transporters.)

The test system of data set [2] is Human whole blood stimulated with a TLR2 agonist (lipoteichoic acid), IL-6 levels. Description: IRAK4 Whole Blood Assay. In kind it is cell-based. The following applies: Homo sapiens, lipoteichoic acid 10 μg/mL. The essentials: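 ACD-A-anticoagulated human whole blood was preincubated with compounds for 60 min at 37 °C under 5% CO2. It was then stimulated with 10 μg/mL lipoteichoic acid (final) in RPMI for 5 h. IL-6 in plasma supernatants was measured by flow cytometry bead assay.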

Some results are limits rather than exact numbers.

Chain of IRAK4 (Q9NWZ3 whole entry, species assumed): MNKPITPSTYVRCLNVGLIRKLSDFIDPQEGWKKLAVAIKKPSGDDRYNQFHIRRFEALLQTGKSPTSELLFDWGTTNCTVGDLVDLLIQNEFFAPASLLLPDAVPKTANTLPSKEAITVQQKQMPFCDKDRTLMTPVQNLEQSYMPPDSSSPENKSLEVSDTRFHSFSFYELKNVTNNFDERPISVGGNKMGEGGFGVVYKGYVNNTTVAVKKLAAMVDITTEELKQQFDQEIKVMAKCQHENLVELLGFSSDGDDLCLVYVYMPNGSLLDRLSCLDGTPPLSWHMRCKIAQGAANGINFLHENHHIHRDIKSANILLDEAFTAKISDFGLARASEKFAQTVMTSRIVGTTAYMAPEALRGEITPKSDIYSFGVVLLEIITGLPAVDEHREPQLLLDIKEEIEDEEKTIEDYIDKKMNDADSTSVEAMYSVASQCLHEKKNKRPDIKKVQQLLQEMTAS

In general, IC50 refers to the midpoint of a concentration-inhibition curve. As a reminder, the Papp is a coefficient for how fast a substance crosses the barrier. Higher therefore signals fast passage. By EC50 is commonly meant the concentration that produces a half-maximal response. A lower EC50 goes with greater potency. Turning to `CC(C)Nc1cc(-n2ncc3cc(C#N)cnc32)ncc1-c1cn(CC2CC2)nn1` [Example 16, 1-(5-(1-(cyclopropylmethyl)-1H-1,2,3-triazol-4-yl)-4-(isopropylamino)pyridin-2-yl)-1H-pyrazolo[3,4-b]pyridine-5-carbonitrile], the IC50 at IRAK4 turned out to be 5 nM. Further, the Papp at 2 h, 3 µM in data set [1] was 14 ×10⁻⁶ cm/s. The molecule also displayed an EC50 in data set [2] of 850 nM.

Turning to `CC(C)Nc1cc(-n2ncc3cc(C#N)cnc32)ncc1-c1cn(C2CCN(C)C2=O)nn1` (stereo not drawn) [Example 21, 1-(4-(isopropylamino)-5-(1-(1-methyl-2-oxopyrrolidin-3-yl)-1H-1,2,3-triazol-4-yl)pyridin-2-yl)-1H-pyrazolo[3,4-b]pyridine-5-carbonitrile], the IC50 at IRAK4 came out at 4 nM. Besides, the apparent permeability coefficient (Papp) at 2 h, 3 µM in data set [1] amounted to 4.2 ×10⁻⁶ cm/s. This molecule also had a concentration for a half-maximal effect (EC50) in data set [2] of 320 nM.

Regarding `CC(C)Nc1cc(-n2ncc3cc(C#N)c(N)nc32)ncc1-c1cn(C2CCCCC2)nn1` [Example 25, 6-amino-1-(5-(1-cyclohexyl-1H-1,2,3-triazol-4-yl)-4-(isopropylamino)pyridin-2-yl)-1H-pyrazolo[3,4-b]pyridine-5-carbonitrile], the half-maximal inhibitory concentration (IC50) on IRAK4 stood at 2 nM. The molecule further registered an apparent permeability (Papp) at 2 h, 3 µM in data set [1] of 4.9 ×10⁻⁶ cm/s. In data set [2], this molecule had an EC50 of 800 nM.

For the molecule `CC(C)Nc1cc(-n2ncc3cc(C#N)c(N)nc32)ncc1-c1cn(CCCO)nn1` [Example 29, 6-amino-1-(5-(1-(3-hydroxypropyl)-1H-1,2,3-triazol-4-yl)-4-(isopropylamino)pyridin-2-yl)-1H-pyrazolo[3,4-b]pyridine-5-carbonitrile], the IC50 on IRAK4 amounted to 4 nM. This molecule also came in with a Papp at 2 h, 3 µM in data set [1] of less than 1.5 ×10⁻⁶ cm/s. This molecule registered a concentration for a half-maximal effect (EC50) in data set [2] of 380 nM.

As to `CCCn1cc(-c2cnc(-n3ncc4cc(C#N)cnc43)cc2NC(C)C)nn1` [Example 30, 1-(4-(isopropylamino)-5-(1-propyl-1H-1,2,3-triazol-4-yl)pyridin-2-yl)-1H-pyrazolo[3,4-b]pyridine-5-carbonitrile], the half-maximal inhibitory concentration (IC50) on IRAK4 stood at 4 nM. The same molecule displayed a Papp at 2 h, 3 µM in data set [1] of 22.5 ×10⁻⁶ cm/s. In data set [2], this molecule displayed an EC50 of 160 nM.

Take `CCCn1cc(-c2cnc(-n3ncc4cc(C#N)c(N)nc43)cc2NC(C)C)nn1` [Example 33, 6-amino-1-(4-(isopropylamino)-5-(1-propyl-1H-1,2,3-triazol-4-yl)pyridin-2-yl)-1H-pyrazolo[3,4-b]pyridine-5-carbonitrile]: the half-maximal inhibitory concentration (IC50) on IRAK4 came out at 3 nM. This molecule also came in with an apparent permeability (Papp) at 2 h, 3 µM in data set [1] of 16.7 ×10⁻⁶ cm/s. Besides, in data set [2], the concentration for a half-maximal effect (EC50) worked out at 3720 nM.

Regarding `CCCn1cc(-c2cnc(-n3ncc4cc(C#N)cnc43)cc2NC2CC2)nn1` [Example 34, 1-(4-(cyclopropylamino)-5-(1-propyl-1H-1,2,3-triazol-4-yl)pyridin-2-yl)-1H-pyrazolo[3,4-b]pyridine-5-carbonitrile], the concentration for half-maximal inhibition (IC50) at IRAK4 was 4 nM. In data set [1], the Papp at 2 h, 3 µM worked out at 48.1 ×10⁻⁶ cm/s. In addition, the concentration for a half-maximal effect (EC50) in data set [2] is 660 nM.

Take `CCCn1cc(-c2cnc(-n3ncc4cc(C#N)c(N)nc43)cc2NC2CC2)nn1` [Example 35, 6-amino-1-(4-(cyclopropylamino)-5-(1-propyl-1H-1,2,3-triazol-4-yl)pyridin-2-yl)-1H-pyrazolo [3,4-b]pyridine-5-carbonitrile]: on IRAK4, the half-inhibitory concentration (IC50) turned out to be 3 nM. In data set [1], this molecule registered a Papp at 2 h, 3 µM of 23.7 ×10⁻⁶ cm/s. The same molecule gave an EC50 in data set [2] of 460 nM.

For the molecule `CCn1cc(-c2cnc(-n3ncc4cc(C#N)cnc43)cc2NC(C)C)nn1` [Example 37, 1-(5-(1-ethyl-1H-1,2,3-triazol-4-yl)-4-(isopropylamino)pyridin-2-yl)-1H-pyrazolo[3,4-b]pyridine-5-carbonitrile], the half-maximal inhibitory concentration (IC50) at IRAK4 came to 5 nM. This molecule gave an apparent permeability coefficient (Papp) at 2 h, 3 µM in data set [1] of 33.9 ×10⁻⁶ cm/s. Further, it took 160 nM to reach a half-maximal effect in data set [2] (EC50).

Regarding `CC(C)Nc1cc(-n2ncc3cc(C#N)cnc32)ncc1-c1cn(CCC(F)(F)F)nn1` [Example 41, 1-(4-(isopropylamino)-5-(1-(3,3,3-trifluoropropyl)-1H-1,2,3-triazol-4-yl)pyridin-2-yl)-1H-pyrazolo[3,4-b]pyridine-5-carbonitrile], the IC50 at IRAK4 is 4 nM. This molecule also gave an apparent permeability (Papp) at 2 h, 3 µM in data set [1] of 27.8 ×10⁻⁶ cm/s. In data set [2], the EC50 worked out at 320 nM.

Regarding `CC(C)Nc1cc(-n2ncc3cc(C#N)cnc32)ncc1-c1cn(CCCCF)nn1` [Example 48, 1-(5-(1-(4-fluorobutyl)-1H-1,2,3-triazol-4-yl)-4-(isopropylamino)pyridin-2-yl)-1H-pyrazolo[3,4-b]pyridine-5-carbonitrile], on IRAK4, the IC50 amounted to 4 nM. Besides, the Papp at 2 h, 3 µM in data set [1] came out at 30 ×10⁻⁶ cm/s. This molecule also registered an EC50 in data set [2] of 920 nM.

Turning to `CCCn1cc(-c2cnc(-n3ncc4cc(C#N)cnc43)cc2NC2CCOCC2)nn1` [Example 49, 1-(5-(1-propyl-1H-1,2,3-triazol-4-yl)-4-((tetrahydro-2H-pyran-4-yl)amino)pyridin-2-yl)-1H-pyrazolo[3,4-b]pyridine-5-carbonitrile], at IRAK4, the IC50 is 4 nM. Besides, the Papp at 2 h, 3 µM in data set [1] came out at 28.8 ×10⁻⁶ cm/s. In data set [2], this molecule had an EC50 of 580 nM.

Consider `CCCn1cc(-c2cnc(-n3ncc4cc(C#N)cnc43)cc2N[C@@H](C)CO)nn1` [Example 52, (S)-1-(4-((1-hydroxypropan-2-yl)amino)-5-(1-propyl-1H-1,2,3-triazol-4-yl)pyridin-2-yl)-1H-pyrazolo[3,4-b]pyridine-5-carbonitrile], for which the IC50 on IRAK4 was determined as 3 nM. The molecule further returned a Papp at 2 h, 3 µM in data set [1] of 3.4 ×10⁻⁶ cm/s. This molecule displayed an EC50 in data set [2] of 430 nM.

For `CCCn1cc(-c2cnc(-n3cnc4cc(C#N)cnc43)cc2N[C@@H](C)CO)nn1` [Example 53, (S)-3-(4-((1-hydroxypropan-2-yl)amino)-5-(1-propyl-1H-1,2,3-triazol-4-yl)pyridin-2-yl)-3H-imidazo [4,5-b]pyridine-6-carbonitrile], on IRAK4, the IC50 was 2 nM. Moreover, the apparent permeability coefficient (Papp) at 2 h, 3 µM in data set [1] came to 26.7 ×10⁻⁶ cm/s. The molecule further returned an EC50 in data set [2] of 100 nM.

For the molecule `CCCn1cc(-c2cnc(-n3ncc4cc(C#N)cnc43)cc2NCC)nn1` [Example 54, 1-(4-(ethylamino)-5-(1-propyl-1H-1,2,3-triazol-4-yl)pyridin-2-yl)-1H-pyrazolo[3,4-b]pyridine-5-carbonitrile], at IRAK4, the 50% inhibitory concentration (IC50) is 9 nM. Besides, in data set [1], the Papp at 2 h, 3 µM worked out at 40.8 ×10⁻⁶ cm/s. This molecule yielded an EC50 in data set [2] of 1180 nM.

Regarding `CC(C)Nc1cc(-n2ncc3cc(C#N)cnc32)ncc1-c1cn(CCc2ccccc2)nn1` [Example 56, 1-(4-(isopropylamino)-5-(1-phenethyl-1H-1,2,3-triazol-4-yl)pyridin-2-yl)-1H-pyrazolo [3,4-b]pyridine-5-carbonitrile], the concentration for half-maximal inhibition (IC50) on IRAK4 was determined as 3 nM. The same molecule returned an apparent permeability coefficient (Papp) at 2 h, 3 µM in data set [1] of 7.2 ×10⁻⁶ cm/s. In data set [2], the midpoint of the response, the EC50, lay at 180 nM.

Consider `CCCn1cc(-c2cnc(-n3ncc4cc(C#N)cnc43)cc2Nc2cnn(CC(F)F)c2)nn1` [Example 60, 1-(4-((1-(2,2-difluoroethyl)-1H-pyrazol-4-yl)amino)-5-(1-propyl-1H-1,2,3-triazol-4-yl)pyridin-2-yl)-1H-pyrazolo[3,4-b]pyridine-5-carbonitrile], for which, on IRAK4, the half-inhibitory concentration (IC50) was 2 nM. Also, in data set [1], the Papp at 2 h, 3 µM turned out to be 11.9 ×10⁻⁶ cm/s. This molecule also showed a 50% effective concentration (EC50) in data set [2] of 250 nM.

As for `CCCn1cc(-c2cnc(-n3cnc4cnc(N)nc43)cc2NC(C)C)nn1` [Example 62, 9-(4-(isopropylamino)-5-(1-propyl-1H-1,2,3-triazol-4-yl)pyridin-2-yl)-9H-purin-2-amine], the 50% inhibitory concentration (IC50) on IRAK4 was 4 nM. This molecule also showed a Papp at 2 h, 3 µM in data set [1] of 32.1 ×10⁻⁶ cm/s. Besides, in data set [2], the 50% effective concentration (EC50) turned out to be 140 nM.

With `CC(C)Nc1cc(-n2ncc3cc(C#N)cnc32)ncc1-c1cn(CC(C)(C)O)nn1` [Example 63, 1-(5-(1-(2-hydroxy-2-methylpropyl)-1H-1,2,3-triazol-4-yl)-4-(isopropylamino)pyridin-2-yl)-1H-pyrazolo[3,4-b]pyridine-5-carbonitrile], the IC50 at IRAK4 is 14 nM. In data set [1], this molecule had a Papp at 2 h, 3 µM of 7.8 ×10⁻⁶ cm/s. This molecule also returned an EC50 in data set [2] of 900 nM.

For `CC(C)Nc1cc(-n2ncc3cc(C#N)cnc32)ncc1-c1cn(C[C@H](O)c2ccccc2)nn1` [Example 85, (R)-1-(5-(1-(2-hydroxy-2-phenylethyl)-1H-1,2,3-triazol-4-yl)-4-(isopropylamino)pyridin-2-yl)-1H-pyrazolo[3,4-b]pyridine-5-carbonitrile], the half-inhibitory concentration (IC50) at IRAK4 was found to be 5 nM. Moreover, the apparent permeability (Papp) at 2 h, 3 µM in data set [1] was 6.9 ×10⁻⁶ cm/s. For the same molecule, a half-maximal effect in data set [2] (EC50) was put at 310 nM.
